Experimental data from PMC5856881, “UGT79B31 is responsible for the final modification step of pollen-specific flavonoid biosynthesis in Petunia hybrida” (Planta, 2017).

Biological target: T1, UGT79B31 (Petunia x hybrida, UniProt A0A2Z6FLE1)
T1 construct: full-length, cloned from petunia pollen cDNA; His/ProS2 fusion (pColdProS2) in E. coli BL21star (DE3), tag cleaved with HRV3C protease; partially purified
Test: end-product inhibition, UPLC/PDA/QTOF/MS glucosyltransferase assay
Format: biochemical
Settings: read-out: Relative activity (%)
Excerpt: end-product inhibition, UPLC/PDA/QTOF/MS glucosyltransferase assay on UGT79B31

T1 sequence (A0A2Z6FLE1 1-455): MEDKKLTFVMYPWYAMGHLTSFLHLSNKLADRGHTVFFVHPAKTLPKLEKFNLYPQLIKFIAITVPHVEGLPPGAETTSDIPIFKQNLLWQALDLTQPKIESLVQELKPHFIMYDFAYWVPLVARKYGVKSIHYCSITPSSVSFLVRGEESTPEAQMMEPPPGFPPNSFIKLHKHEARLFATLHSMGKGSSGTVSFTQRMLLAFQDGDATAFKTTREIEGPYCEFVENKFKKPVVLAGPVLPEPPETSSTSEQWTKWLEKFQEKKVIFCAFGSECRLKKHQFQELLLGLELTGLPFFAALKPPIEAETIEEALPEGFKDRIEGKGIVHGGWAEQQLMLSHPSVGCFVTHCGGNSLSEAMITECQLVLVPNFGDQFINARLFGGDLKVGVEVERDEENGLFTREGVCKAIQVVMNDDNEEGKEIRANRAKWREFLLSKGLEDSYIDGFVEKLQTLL

## O=c1ccn([C@@H]2O[C@H](COP(=O)(O)OP(=O)(O)O)[C@@H](O)[C@H]2O)c(=O)[nH]1 [UDP]
  activity at 1000 µM: 4.2 ± 0.1%
